The CheMixHub ionic liquid set

Assay: xn = mol fraction of the nth substance listed

C=C[n+]1ccn(CCCC)c1.NCCCC[C@H](N)C(=O)[O-] + O
101.3 kPa
Settings	electrical conductivity [S/m]	viscosity [mPa·s]
293.15 K, x1 = 0.3	–	8.51
293.15 K, x1 = 0.5	–	90.4
293.15 K, x1 = 0.9	–	1909
293.15 K, x1 = 1	–	10700
303.15 K, x1 = 0.5	2.81	69.3
303.15 K, x1 = 0.9	1.13	1664
303.15 K, x1 = 1	0.133	6900
308.15 K, x1 = 0.1	2.16	–
313.15 K, x1 = 0.3	2.99	4.43
313.15 K, x1 = 0.5	3.31	51.34
323.15 K, x1 = 0.5	3.88	40.64
333.15 K, x1 = 0.9	–	750
343.15 K, x1 = 0.5	–	36.74
343.15 K, x1 = 0.9	–	223
353.15 K, x1 = 0.1	–	1.39
353.15 K, x1 = 0.3	–	2.03

CC(=O)[O-].CCC[NH3+] + O
298.15 K, 101 kPa
Settings	electrical conductivity [S/m]
x1 = 0.0032	0.713
x1 = 0.005	0.905
x1 = 0.0101	1.43
x1 = 0.0169	1.47
x2 = 0	0.043
x2 = 0.1576	0.082
x2 = 0.3525	0.165
x2 = 0.5506	0.401
x2 = 0.6999	0.685
x2 = 0.7885	0.937
x2 = 0.8198	1.06
x2 = 0.8501	1.18
x2 = 0.8849	1.34
x2 = 0.9041	1.44
x2 = 0.9082	1.47
x2 = 0.9305	1.59
x2 = 0.9455	1.65
x2 = 0.965	1.65
x2 = 0.9742	1.61

CC(=O)[O-].CC[NH+](CC)CC + O
298.15 K, 101 kPa
Settings	viscosity [mPa·s]
x1 = 0.0288	6.32
x1 = 0.042	8.12
x1 = 0.0638	10.7
x1 = 0.0847	13.35
x1 = 0.1016	14.91
x1 = 0.1457	18.6
x1 = 0.2125	23.4
x1 = 0.2349	24.4
x1 = 0.2904	26.5
x1 = 0.3254	27.4
x1 = 0.367	27.8
x1 = 0.4174	28.2
x1 = 0.5162	27.6
x1 = 0.5579	26.8
x1 = 0.6055	26.1
x1 = 0.6604	25.3
x1 = 0.7243	24.2
x1 = 0.7996	22.9
x1 = 0.8899	22.7
x1 = 1	24.1

CCCCCCCCCCCC[n+]1ccn(C)c1.[Cl-] + O
298.15 K, 100 kPa, frequency 0.001 MHz
Settings	electrical conductivity [S/m]
x1 = 7.207e-05	0.035
x1 = 9.009e-05	0.043
x1 = 0.0001261	0.059
x1 = 0.0001802	0.085
x1 = 0.0002162	0.102
x1 = 0.0002882	0.129
x1 = 0.0003242	0.137
x1 = 0.0004143	0.155
x1 = 0.0004503	0.163
x1 = 0.0004863	0.17
x1 = 0.0005223	0.177

CCCCCCCCCC[N+](C)(C)C.[Br-] + O
298.15 K, 101 kPa
Settings	viscosity [mPa·s]
x1 = 9.063e-05	0.9026
x1 = 0.0001809	0.9052
x1 = 0.0002674	0.9071
x1 = 0.0003644	0.9089
x1 = 0.0004939	0.9162
x1 = 0.000699	0.9255
x1 = 0.0009049	0.9331
x1 = 0.00108	0.939
x1 = 0.001236	0.9459
x1 = 0.001415	0.9542
x1 = 0.001504	0.9589
x1 = 0.001656	0.9675
x1 = 0.001835	0.9775

CCCCCCCCCC[n+]1ccn(C)c1.O=S(=O)([N-]S(=O)(=O)C(F)(F)C(F)(F)F)C(F)(F)C(F)(F)F + O
Settings	electrical conductivity [S/m]
295.15 K, 101 kPa, x2 = 0.14	0.11

CCCCCCCCCC[n+]1ccn(C)c1.[Cl-] + O
298.15 K, frequency 5e-05 MHz
Settings	electrical conductivity [S/m]
100 kPa, x1 = 0.0002846	0.126
100 kPa, x1 = 0.0003693	0.163
100 kPa, x1 = 0.0004125	0.177
100 kPa, x1 = 0.0004683	0.205
100 kPa, x1 = 0.0005331	0.235
100 kPa, x1 = 0.0005997	0.262
100 kPa, x1 = 0.0006609	0.294
100 kPa, x1 = 0.0007347	0.32
100 kPa, x1 = 0.0007922	0.347
100 kPa, x1 = 0.0008678	0.375
100 kPa, x1 = 0.000929	0.4
100 kPa, x1 = 0.0009883	0.424
100 kPa, x1 = 0.001073	0.44
100 kPa, x1 = 0.001143	0.446
100 kPa, x1 = 0.001186	0.45
100 kPa, x1 = 0.001274	0.458
100 kPa, x1 = 0.001346	0.467
100 kPa, x1 = 0.001387	0.471
100 kPa, x1 = 0.001452	0.479
100 kPa, x1 = 0.001524	0.489
100 kPa, x1 = 0.001603	0.493
100 kPa, x1 = 0.001637	0.497
101.3 kPa, x1 = 0.04436	4.7

298.15 K, 101.3 kPa
Settings	electrical conductivity [S/m]
x1 = 6.46e-06	0.00385
x1 = 9.55e-06	0.00548
x1 = 1.262e-05	0.00708
x1 = 1.582e-05	0.00872
x1 = 1.894e-05	0.0103
x1 = 2.2e-05	0.0118
x1 = 2.507e-05	0.01334
x1 = 2.8e-05	0.0148
x1 = 3.092e-05	0.0162
x1 = 3.384e-05	0.0176

CCCCCCCCn1cc[n+](C)c1.N[C@@H](CCC(=O)O)C(=O)[O-] + O
298.15 K, 100 kPa
Settings	electrical conductivity [S/m]
x1 = 0.001637	0.28
x1 = 0.002301	0.358
x1 = 0.002857	0.426
x1 = 0.003573	0.518
x1 = 0.004181	0.593
x1 = 0.004913	0.651
x1 = 0.005822	0.708
x1 = 0.006748	0.759
x1 = 0.008079	0.835
x1 = 0.008965	0.89
x1 = 0.01029	0.928
x1 = 0.01145	0.926

CCCCCC[N+](C)(C)C.[Br-] + O
298.15 K, 101 kPa
Settings	electrical conductivity [S/m]	viscosity [mPa·s]
x1 = 0.000888	–	0.9148
x1 = 0.001394	–	0.9261
x1 = 0.002133	–	0.9439
x1 = 0.003331	–	0.9727
x1 = 0.004173	–	0.9962
x1 = 0.004485	1.84	–
x1 = 0.005042	–	1.019
x1 = 0.005996	–	1.043
x1 = 0.006874	–	1.066
x1 = 0.007743	–	1.088
x1 = 0.008657	–	1.113
x1 = 0.0096	–	1.138
x1 = 0.01046	–	1.162
x1 = 0.01139	–	1.189
x1 = 0.01245	–	1.222

CCCC[N+]1(C)CCCC1.N#C[S-] + O
101 kPa
Settings	viscosity [mPa·s]
298.15 K, x2 = 0.2203	68.6
298.15 K, x2 = 0.5252	28.9
298.15 K, x2 = 0.783	10.04
298.15 K, x2 = 0.8623	5.9
308.15 K, x2 = 0.5252	19.9
308.15 K, x2 = 0.6634	12.37
308.15 K, x2 = 0.8623	4.31
308.15 K, x2 = 0.9657	1.36
318.15 K, x2 = 0.2203	31.6
318.15 K, x2 = 0.8623	3.23
318.15 K, x2 = 0.9657	1.1
328.15 K, x2 = 0.0853	28.9
328.15 K, x2 = 0.783	4.19
338.15 K, x2 = 0	25.3
338.15 K, x2 = 0.2203	17.3
338.15 K, x2 = 0.783	3.27
338.15 K, x2 = 0.9657	0.79
348.15 K, x2 = 0.2203	13.32
348.15 K, x2 = 0.6634	4.42
348.15 K, x2 = 0.9657	0.69

CCCC[N+]1(C)CCCC1.O=S(=O)([O-])C(F)(F)F + O
100 kPa
Settings	electrical conductivity [S/m]	viscosity [mPa·s]
288.15 K, x2 = 0.0597	0.147	241.7
288.15 K, x2 = 0.3197	0.297	98.4
288.15 K, x2 = 0.3766	0.344	81.5
288.15 K, x2 = 0.7673	1.04	18.66
293.15 K, x2 = 0.3197	0.368	76.9
293.15 K, x2 = 0.8612	1.72	8.54
298.15 K, x2 = 0.0597	0.238	138.8
298.15 K, x2 = 0.3766	0.521	51.2
298.15 K, x2 = 0.6794	1.15	18.33
298.15 K, x2 = 0.7673	1.51	12.54
298.15 K, x2 = 0.95	2.4	2.88
303.15 K, x2 = 0.3766	0.623	41.65
303.15 K, x2 = 0.95	2.77	2.49
308.15 K, x2 = 0.1203	0.415	72.5
308.15 K, x2 = 0.3766	0.736	34.31
313.15 K, x2 = 0.1956	0.581	47.98
313.15 K, x2 = 0.5819	1.42	15.25
318.15 K, x2 = 0.1203	0.586	48.5
318.15 K, x2 = 0.3197	0.89	28.23
323.15 K, x2 = 0.0597	0.612	46.94
323.15 K, x2 = 0.1956	0.795	33.42
323.15 K, x2 = 0.5819	1.87	11.25
323.15 K, x2 = 0.6794	2.43	8.12
323.15 K, x2 = 0.95	4.45	1.52
328.15 K, x2 = 0.3766	1.31	17.72
333.15 K, x2 = 0.5819	2.41	8.59
